Data reported in US11578055B2, “Triazacyclododecansulfonamide (“TCD”)-based protein secretion inhibitors” (KEZAR LIFE SCIENCES, priority 2018, dated 2023).
Structures can show the parent of a compound that is named as a salt. Where two headings read alike, the source gives them in different places.

Columns and labels:
[1] = In Vitro Microsome Stability Assay (rat); type: in vitro ADME
Summary of the method: (§1)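 Species liver microsomes in potassium phosphate buffer were preincubated at 37 °C for 3–5 min with test compound (added from 0.25 mM DMSO stock), then started with NADPH. Samples at 0 and 30 min were quenched with acetonitrile containing internal standard and analysed by LC-MS/MS; % remaining at 30 min used analyte/IS AUC ratios relative to t=0.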

[2] = system: multiple myeloma cell line NCl-H929; experiment: H929 Cell Viability Assay; type: cell-based, human; conditions: Homo sapiens, NCI-H929, 48 h
Summary of the method: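 Viability was determined by CellTiter-Glo luminescence after a 48 h, 37 °C exposure of NCI-H929 cells to serial compound dilutions in medium containing 10% FBS. Where stereochemistry is not shown, values refer to a mix of stereoisomers.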

[3] = system: full length TNFα (amino acids 1-233) fused to Gaussia Luciferase; experiment: Dox Induced TNFα-FL-Gluc Assay; type: cell-based; conditions: 24 hr, read-out: 24 hr Dox Inducible TNFaFLGluc 293FRT/TO: Mean IC50
Summary of the method: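 Compounds diluted in DMSO/medium with doxycycline were incubated at 37° C, 5% CO2 with 293 T-REx cells stably carrying a Tet-regulated TNFα(1-233)-Gaussia luciferase construct. Data for structures drawn without stereochemistry refer to stereoisomer mixtures.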

[4] = system: multiple myeloma cell line U266B1; experiment: U266 Cell Viability Assay; type: cell-based, human; conditions: Homo sapiens, U-266, 48 hr
Summary of the method: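 Viability was measured by CellTiter-Glo luminescence after 48 h compound exposure at 37° C, 5% CO2. The cells were U266B1 multiple myeloma cells grown in RPMI 1640 plus 10% FBS. Where stereochemistry is not shown, values apply to the stereoisomer mixture.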

[5] = In Vitro Microsome Stability Assay (mouse); type: in vitro ADME
Summary of the method: as §1

[6] = In Vitro Microsome Stability Assay (human); type: in vitro ADME
Summary of the method: as §1

[7] = In Vitro Microsome Stability Assay (monkey); type: in vitro ADME
Summary of the method: as §1

[8] = system: PD1 signal sequence plus 10 amino acids fused to Gaussia Luciferase (PD1-ss+10aa/Gaussia Luciferase); experiment: Dox Induced PD1-ss-Gluc Assay; type: cell-based; conditions: 24 hr, read-out: 24 hr Dox Inducible PD1ssGluc 293FRT/TO: Mean IC50
Summary of the method: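 Compound dilutions in DMSO/media containing doxycycline were applied to a stable, inducible 293 T-REx line carrying the luciferase fusion, then incubated at 37 °C, 5% CO2. Where stereochemistry is not drawn, values relate to isomer mixtures.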

[9] = H929, read-out: 48 hr H929 Viability Celltiter-Glo: Mean EC50
[10] = U266, read-out: 48 hr U266 Viability Celltiter-Glo: Mean EC50
[11] = rat liver microsomes, 30 min w/ NADPH
[12] = mouse liver microsomes, 30 min w/ NADPH
[13] = human liver microsomes, 30 min w/ NADPH
[14] = monkey liver microsomes, 30 min w/ NADPH

Row | Liver Microsome Stability-% Left after 30 min w/ NADPH (%) Rat ([1]; rat, 30 min, NADPH) | EC50 [2, 9] | IC50 ([3]; 293FRT/TO) | EC50 [4, 10] | Liver Microsome Stability-% Left after 30 min w/ NADPH (%) Mouse ([5]; mouse, 30 min, NADPH) | Liver Microsome Stability-% Left after 30 min w/ NADPH (%) Human ([6]; human, 30 min, NADPH) | Liver Microsome Stability-% Left after 30 min w/ NADPH (%) Monkey ([7]; monkey, 30 min, NADPH) | IC50 ([8]; 293FRT/TO) | Liver Microsome Stability-% Left after 30 min w/ NADPH (%) Rat [1, 11] | EC50 ([2]; H929, Celltiter-Glo) | IC50 ([3]; Dox inducible, 293FRT/TO cells) | EC50 ([4]; U266, Celltiter-Glo) | Liver Microsome Stability-% Left after 30 min w/ NADPH (%) Mouse [5, 12] | Liver Microsome Stability-% Left after 30 min w/ NADPH (%) Human [6, 13] | Liver Microsome Stability-% Left after 30 min w/ NADPH (%) Monkey [7, 14] | IC50 ([8]; Dox inducible, 293FRT/TO cells) | Compound
1 | 0.12% | > 25 µM | > 25 µM | > 25 µM | 0.12% | 0.2% | 0.03% | 0.477 µM |  |  |  |  |  |  |  |  | C=C1CN(S(=O)(=O)c2ccc(N(C)C)cc2)CCCN(CC2CCCCC2)CCCN(S(=O)(=O)N2CCC(c3ncccn3)CC2)C1 [A81, 4-{[9-(cyclohexylmethyl)-3-methylidene-5-{[4-(pyrimidin-2-yl)piperidin-1-yl]sulfonyl}-1,5,9-triazacyclododecan-1-yl]sulfonyl}-N,N-dimethylaniline]
2 |  |  |  |  |  |  |  |  | 0.1% | 9.44 µM | > 25 µM | 12.6 µM | 0.15% | 0.26% | 0.08% | 7.38 µM | CN(C)c1ccc(S(=O)(=O)N2CCCN(CC3CCCCC3)CCCN(S(=O)(=O)N3CCCCC3)CC2)cc1 [B3, 4-{[8-(cyclohexylmethyl)-4-(piperidine-1-sulfonyl)-1,4,8-triazacycloundecan-1-yl]sulfonyl}-N,N-dimethylaniline]
3 | 71.5% | 3.47 µM | 1.86 µM | > 25 µM | 16.3% | 18.2% | 25.4% | 0.0373 µM |  |  |  |  |  |  |  |  | C=C1CN(S(=O)(=O)c2ccc(N(C)C)cc2)CCCN(CC2CCCCC2)CCCN(S(=O)(=O)N2CC=C(c3ccccc3Cl)CC2)C1 [A73, 4-[(5-{[4-(2-chlorophenyl)-1,2,3,6-tetrahydropyridin-1-yl]sulfonyl}-9-(cyclohexylmethyl)-3-methylidene-1,5,9-triazacyclododecan-1-yl)sulfonyl]-N,N-dimethylaniline]
4 | 0.12% | > 25 µM | > 25 µM | > 25 µM | 0.24% | 0.03% | 0.09% | > 25 µM |  |  |  |  |  |  |  |  | O=S(=O)(c1ccccc1)N1CCCN(CC2CCCCC2)CCCN(S(=O)(=O)N2CCCCC2)CC2(CC2)C1 [A34, 5-(benzenesulfonyl)-9-(cyclohexylmethyl)-13-(piperidine-1-sulfonyl)-5,9,13-triazaspiro[2.11]tetradecane]
5 |  |  |  |  |  |  |  |  | 15.7% | > 25 µM | 15.4 µM | > 25 µM | 13.5% | 9.46% | 0.98% | 0.221 µM | C=C1CN(S(=O)(=O)c2ccc(N(C)C)cc2)C(C)CCN(CC2CCCCC2)CCCN(S(=O)(=O)N2CCC(c3ccccc3)CC2)C1 (stereo not drawn) [B19, 4-{[5-(cyclohexylmethyl)-2-methyl-11-methylidene-9-[(4-phenylpiperidin-1-yl)sulfonyl]-1,5,9-triazacyclododecan-1-yl]sulfonyl}-N,N-dimethylaniline]
6 | 78% | > 25 µM | 8.72 µM | > 25 µM | 73.4% | 53.1% | 57.8% | 0.154 µM |  |  |  |  |  |  |  |  | C=C1CN(S(=O)(=O)c2ccc(N(C)C)cc2)CCCN(CC2CCCCC2)CCCN(S(=O)(=O)N2CCC(C3CCCCC3)CC2)C1 [A65, 4-{[9-(cyclohexylmethyl)-5-[(4-cyclohexylpiperidin-1-yl)sulfonyl}-3-methylidene-1,5,9-triazacyclododecan-1-yl]sulfonyl}-N,N-dimethylaniline]
7 | 1.06% | > 25 µM | > 25 µM | > 25 µM | 0.41% | 0.49% | 0.36% | 0.943 µM |  |  |  |  |  |  |  |  | CN(C)c1ccc(S(=O)(=O)N2CCCN(CC3CCCCC3)CCCN(S(=O)(=O)N3CCCCC3)CC3(COC3)C2)cc1 [A17, 4-{[10-(cyclohexylmethyl)-14-(piperidine-1-sulfonyl)-2-oxa-6,10,14-triazaspiro[3.11]pentadecan-6-yl]sulfonyl}-N,N-dimethylaniline]
8 | 0.28% | > 25 µM | > 25 µM | > 25 µM | 0.35% | 0.12% | 0.03% | 0.793 µM |  |  |  |  |  |  |  |  | Cc1cc(N(C)C)ccc1S(=O)(=O)N1CCCN(CC2CCCCC2)CCCN(S(=O)(=O)N2CCCCC2)CC2(CC2)C1 [A30, 4-{[9-(cyclohexylmethyl)-13-(piperidine-1-sulfonyl)-5,9,13-triazaspiro[2.11]tetradecan-5-yl]sulfonyl}-N,N,3-trimethylaniline]
9 | 84% | > 25 µM | 7.81 µM | > 25 µM | 60.2% | 31.9% | 28.5% | 0.0734 µM |  |  |  |  |  |  |  |  | C=C1CN(S(=O)(=O)c2ccc(N(C)C)cc2)CCCN(CC2CCCCC2)CCCN(S(=O)(=O)N2CCC(c3ccccc3Cl)CC2)C1 [A57, 4-[(5-{[4-(2-chlorophenyl)piperidin-1-yl]sulfonyl}-9-(cyclohexylmethyl)-3-methylidene-1,5,9-triazacyclododecan-1-yl)sulfonyl]-N,N-dimethylaniline]
10 | 8.85% | 2.86 µM | 4.69 µM | > 25 µM | 0.2% | 0.77% | 0.14% | 0.123 µM |  |  |  |  |  |  |  |  | C=C1CN(S(=O)(=O)c2ccc(C)cc2)CCCN(CC2CCC(C)(C)CC2)CCCN(S(=O)(=O)c2ccc(N(C)C)cc2)C1 [A10, 4-((9-((4,4-dimethylcyclohexyl)methyl)-3-methylene-5-tosyl-1,5,9-triazacyclododecan-1-yl)sulfonyl)-N,N-dimethylaniline hydrochloride]
11 |  |  |  |  |  |  |  |  | 3.74% | > 25 µM | > 25 µM | > 25 µM | 0.36% | 0.49% | 0.26% | 3.64 µM | CN(C)c1ccc(S(=O)(=O)N2C/C=C/CN(S(=O)(=O)N3CCC(c4ccccc4)CC3)CCCN(CC3CCCCC3)CCC2)cc1 [B9, 4-{[(11E)-5-(cyclohexylmethyl)-9-[(4-phenylpiperidin-1-yl)sulfonyl]-1,5,9-triazacyclotridec-11-en-1-yl]sulfonyl}-N,N-dimethylaniline]
12 | 6.75% | 3.02 µM | 1.3 µM | > 25 µM | 3.14% | 1.36% | 3.26% | 0.0461 µM |  |  |  |  |  |  |  |  | C=C1CN(S(=O)(=O)c2ccc(N(C)C)cc2)CCCN(CC2CCCCC2)CCCN(S(=O)(=O)N2CCc3cc(C#N)ccc3C2)C1 [A70, 2-{[9-(cyclohexylmethyl)-5-[4-(dimethylamino)benzenesulfonyl]-3-methylidene-1,5,9-triazacyclododecan-1-yl]sulfonyl}-1,2,3,4-tetrahydroisoquinoline-6-carbonitrile]
